{"source": "patent US20240050498A1", "about": "“SYNERGISTIC COMPOSITION OF PHAGES AND ITS FORMATION METHOD” (Proteon Pharmaceuticals S.A., priority 2020, published 2024)", "key": {"selected APEC strains": {"test_system": "selected APEC strains", "assay": "Sensitivity of all selected APEC strains to drugs (disk diffusion) and to BAFACOL, summary", "type": "cell-based, Escherichia coli", "settings": "all 12 selected strains", "description": "BAFACOL preparation with the total titer of 1×10^8 PFU/ml was used in the tests.\nThe drug sensitivity of APEC strains was tested with a disk diffusion method, according to CLSI recommendations (Clinical Laboratory Standards Institute; 2008 document: Performance standards for antimicrobial disk and dilution susceptibility tests for bacteria isolated from animals; approved standard, 3rd Ed. CLSI document M31-A3. Clinical and Laboratory Standards Institute, Wayne, PA.). The disk diffusion method used disks soaked with 10 selected drugs (Table 9).\nThe other tested APEC strains were resistant to 6-8 test antimicrobial drugs."}, "APEC strains": {"test_system": "APEC strains", "settings": "nearly 150 APEC strains, in vitro [Oliviera A. et al., 2009]; cited from earlier work"}, "E. coli strain 130PP2017": {"test_system": "E. coli strain 130PP2017", "assay": "Sensitivity of APEC strain to drugs (disk diffusion) and to BAFACOL", "type": "cell-based, Escherichia coli", "settings": "CLSI, disk content as in column head", "description": "The drug sensitivity of APEC strains was tested with a disk diffusion method, according to CLSI recommendations (Clinical Laboratory Standards Institute; 2008 document: Performance standards for antimicrobial disk and dilution susceptibility tests for bacteria isolated from animals; approved standard, 3rd Ed. CLSI document […]-A3. Clinical and Laboratory Standards Institute, Wayne, PA.). The disk diffusion method used disks soaked with 10 selected drugs (Table 9)."}}}
{"smiles": "CCn1cc(C(=O)O)c(=O)c2ccc(C)nc21", "note": "[Nalidixic acid]", "values": [{"measurement": "Drug sensitivity of all selected APEC strains", "setting": "selected APEC strains", "value": "resistant"}]}
{"smiles": "[H]/N=C(/N)N[C@H]1[C@H](O)[C@@H](O)[C@H](O[C@@H]2O[C@@H](C)[C@](O)(C=O)[C@H]2O[C@@H]2O[C@@H](CO)[C@H](O)[C@@H](O)[C@@H]2NC)[C@@H](N/C(N)=N\\[H])[C@@H]1O", "note": "[Streptomycin]", "values": [{"measurement": "Drug sensitivity of all selected APEC strains", "setting": "selected APEC strains", "value": "resistant"}]}
{"smiles": "CCN1CCN(c2cc3c(cc2F)c(=O)c(C(=O)O)cn3C2CC2)CC1", "note": "[enrofloxacin]", "values": [{"measurement": "Share of studied APEC strains that were sensitive", "setting": "APEC strains", "value": "more than 50%"}]}
{"smiles": "CC1(C)S[C@@H]2[C@H](NC(=O)[C@H](N)c3ccccc3)C(=O)N2[C@H]1C(=O)O", "note": "[Ampicillin]", "values": [{"measurement": "Drug sensitivity of all selected APEC strains", "setting": "selected APEC strains", "value": "resistant"}]}
{"smiles": "CN[C@@H]1[C@@H](O[C@H]2O[C@H](CO)[C@@H](N)[C@H](O)[C@H]2O)OC2C[C@@H](N)[C@@H](O[C@H]3[C@H](O)[C@@H](O)[C@H](N)C[C@@H]3N)OC2[C@@H]1O", "note": "(some centres unmarked) [Apramycin]", "values": [{"measurement": "Sensitivity to drug (R/I/S)", "setting": "E. coli strain 130PP2017", "value": "sensitive"}]}
